According to patent publication US11505570B2, “Organic acid salt of nicotinamide riboside, composition including organic acid salt, and preparation methods of organic acid salt and composition” (SHENZHEN DIECKMANN TECH CO., LTD, priority 2020, dated 2022):

Experiment: Stability test: storage in nitrogen-filled sealed bottles, purity test by HPLC every month
Format: physicochemical
Settings: for purity by HPLC, Time (month) 1: 1 month; for purity by HPLC, Time (month) 2: 2 months; for purity by HPLC, Time (month) 3: 3 months; for purity by HPLC, Time (month) 4: 4 months; for purity by HPLC, Time (month) 5: 5 months; for purity by HPLC, Time (month) 6: 6 months; for Decomposition rate: over 6 months; for purity by HPLC, Time (month) 0: initial sample (0 month); for stability, molar ratio (NR to organic acid) 1:2 compared with 1:1: in words, comparison with the corresponding 1:1 product
Experimental: I. Preparation of samples
1. The products of Examples 1 to 4, Examples 10 to 13, and the comparative example were each dispensed into 13 bottles, each of 50 mg; and the bottles were filled with nitrogen and sealed. One of the bottles (initial sample) was first tested, and the remaining 12 bottles were divided into two groups (each with 6 bottles) and stored. The bottles in each group were numbered 1 to 6 according to a test sequence. The two groups of bottles were stored at 2° C. to 8° C. and −20° C., respectively; and one sample was tested every month.
2. The products of Examples 6 to 9 and Example 14 were each dispensed into 7 bottles, each of 50 mg; and the bottles were filled with nitrogen and sealed. One of the bottles (initial sample) was first tested, and the remaining 6 bottles were numbered 1 to 6 according to a test sequence and then stored at 2° C. to 8° C. One sample was tested every month.
II. Preparation of test sample solutions
One bottle of sample was taken at a time and prepared into a 5 mL or 10 mL solution using a 5 mL or 10 mL volumetric flask, and then the solution was filtered through a membrane to be ready for purity test by HPLC.
Mobile phase: isocratic elution: 5% water (0.1% formic acid)+95% methanol (0.1% formic acid)
Temperature and humidity: 23.0° C. and 54% RH
Sample dissolution: dissolution by methanol
Chromatographic column: ODS-2, 4.6 * 250 mm, 5 μm, and constant pressure: 12 Mpa to 13 Mpa
Running time: ≥15 min IV.

[1] = Table 2, stored at 2° C. to 8° C.

Compound	purity by HPLC, Time (month) 1 (Table 1, stored at −20° C.)	purity by HPLC, Time (month) 2 (Table 1, stored at −20° C.)	purity by HPLC, Time (month) 3 (Table 1, stored at −20° C.)	purity by HPLC, Time (month) 4 (Table 1, stored at −20° C.)	purity by HPLC, Time (month) 5 (Table 1, stored at −20° C.)	purity by HPLC, Time (month) 6 (Table 1, stored at −20° C.)	Decomposition rate (Table 1, stored at −20° C.)	purity by HPLC, Time (month) 0 (Table 1, −20° C.)	purity by HPLC, Time (month) 0 (Table 2, 2° C. to 8° C.)	purity by HPLC, Time (month) 1 [1]	purity by HPLC, Time (month) 2 [1]	purity by HPLC, Time (month) 3 [1]	purity by HPLC, Time (month) 4 [1]	purity by HPLC, Time (month) 5 [1]	purity by HPLC, Time (month) 6 [1]	Decomposition rate [1]	stability, molar ratio (NR to organic acid) 1:2 compared with 1:1
NC(=O)c1ccc[n+]([C@@H]2O[C@H](CO)[C@@H](O)[C@H]2O)c1.O=C(O)CC(O)(CC(=O)O)C(=O)[O-] [Example 1, citrate of NR (1:1)]	98.828	98.450	98.190	98.252	97.978	97.814	1.13%	98.930	98.930	98.198	98.409	98.171	97.957	97.823	97.670	1.27%	–
NC(=O)c1ccc[n+]([C@@H]2O[C@H](CO)[C@@H](O)[C@H]2O)c1.O=C(O)CC(O)(CC(=O)O)C(=O)O.O=C(O)CC(O)(CC(=O)O)C(=O)[O-] [Example 2, citrate of NR (1:2)]	98.317	98.079	98.168	97.933	97.806	97.788	0.69%	98.471	98.471	98.492	98.240	98.097	97.626	97.704	97.498	0.99%	higher stability
NC(=O)c1ccc[n+]([C@@H]2O[C@H](CO)[C@@H](O)[C@H]2O)c1.O=C(O)C[C@H](O)C(=O)O.O=C([O-])C[C@H](O)C(=O)O [Example 4, malate of NR (1:2)]	98.547	98.629	98.316	98.207	98.081	98.100	0.73%	98.818	98.818	98.424	98.360	98.298	98.239	97.707	97.816	1.01%	higher stability
NC(=O)c1ccc[n+]([C@@H]2O[C@H](CO)[C@@H](O)[C@H]2O)c1.[Cl-] [Comparative Example, chlorine salt of NR, reference compound]	98.284	98.087	97.701	97.449	97.575	97.210	1.33%	98.525	98.525	98.171	98.206	97.540	97.612	97.384	97.109	1.44%	–
NC(=O)c1ccc[n+]([C@@H]2O[C@H](CO)[C@@H](O)[C@H]2O)c1.O=C([O-])C[C@H](O)C(=O)O [Example 3, malate of NR (1:1)]	98.691	98.310	98.288	98.076	97.912	97.645	0.94%	98.573	98.573	98.482	98.185	98.270	97.946	97.592	97.337	1.25%	–
